Reference: ChEMBL document CHEMBL3638513, “Compounds that are ERK inhibitors” (2013)

Molecular target: Mitogen-activated protein kinase 1 (Mus musculus, UniProt P63085)
Test: IMAP Assay: Activated ERK2 activity was determined in the IMAP assay format.

Chain of Mitogen-activated protein kinase 1 (P63085 whole entry): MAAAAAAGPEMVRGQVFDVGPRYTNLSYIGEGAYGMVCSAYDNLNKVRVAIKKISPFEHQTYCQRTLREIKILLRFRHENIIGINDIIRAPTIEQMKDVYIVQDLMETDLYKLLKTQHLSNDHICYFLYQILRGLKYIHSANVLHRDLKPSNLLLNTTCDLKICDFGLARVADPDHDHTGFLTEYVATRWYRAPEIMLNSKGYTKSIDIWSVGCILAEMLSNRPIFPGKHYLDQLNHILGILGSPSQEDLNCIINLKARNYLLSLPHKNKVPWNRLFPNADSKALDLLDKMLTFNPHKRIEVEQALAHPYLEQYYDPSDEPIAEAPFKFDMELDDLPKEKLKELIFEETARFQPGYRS

- IC50: 18.1 nM
Compound: COC[C@@]1(C(=O)Nc2ccc3[nH]nc(-c4ccnc(C5CC5)c4)c3c2)CCN(CC(=O)N2CC=C(c3ccc(-c4ncccn4)cc3)CC2)C1
